Experimental data as given in patent US20030108964A1, “Caspase-inhibitory-factor(cif)and uses thereof” (priority 2002, published 2003).

Assays:
[1] = system: Endogenous Csp-6 in human breast cancer cell line, MCF7; assay: Endogenous Csp-6 specific activity in treated MCF7 extract; format: cell-based; details: MCF7 extract treated 48 hours; for Endogenous Csp-6 Specific Activity: control 6.34 (0.02); for Csp-6 activity remaining (% of control): control 100%
R-Csp-6 = R-Csp-6 specific activity in presence of treated MCF7 extract; format: cell-based, human; details: MCF7 extract treated 48 hours; for R-Csp-6 Specific Activity: control 6.15 (0.7); for R-Csp-6 activity remaining (% of control): control 100%
Method: After treatment, neuron proteins were extracted in caspase lysis buffer (50 mM Hepes pH 7.4, 0.1% CHAPS, 1 mM DTT, 0.1 mM EDTA) for 10 minutes on ice followed by microcentrifugation to remove insoluble material. Protein concentration was determined by bicinchoninic acid (BCA) assay (Pierce). […] Based on an AFC or AMC standard curve, the amount of released AFC or AMC was measured and the specific activity of the caspase determined as nmoles released AFC or AMC/pg protein/minute.

[2] = system: R-Csp-6-mediated apoptosis in primary cultures of human neurons; assay: TUNEL cell death of primary human neurons microinjected with recombinant active caspase-6; format: cell-based; details: for effect on 17-β-estradiol neuroprotective effect against caspase-6: 10 nM added to 17-β-estradiol
Method: (§1) Primary cultures of neurons were established from 12-14 week old foetal brains, according to ethical regulations of the Medical Research Council of Canada and approved by McGill University. Institutional Review Board. Briefly, cortical and subcortical brain tissue is minced, dissociated in 0.25% trypsin for 15 minutes at 37° C. Trypsin is inactivated with 10% serum and 0.1 mg/ml deoxyribonuclease I added before triturating to completely dissociate the cells. The mixture is successively passed through 130 μm and 70 μm filters, and cells plated at 3×10^6/ml on poly-L-lysine coated tissue culture dishes or ACLAR™ (33C; 5 mm; Allied Chemical Corp.) coverslips in phenol-free minimal essential media in Earle's balanced salt solution containing 0.225% sodium bicarbonate, 1 mM sodium pyruvate, 2 mM L-glutamine, 0.1% dextrose, 1×antibiotic Pen-Strep (all products from Gibco-BRL) and 5% decomplemented fetal bovine serum (Hyclone).
The cells attach rapidly and establish intricate neuritic networks within 3 days. Fluorodeoxyuridine (FdU) is added at 1 mM to prevent proliferation of dividing cells. Typically, the culture is composed of 90-95% neurons and 5-10% astrocytes that survive in culture for 4-6 weeks. Experiments on neurons and astrocytes were conducted at 10 days of culture.
Glass micropipettes of 1.0 mm OD and 0.5 mm ID thin-walled glass capillaries with microfilaments (Borosilicate with filament MTW100F-4, World Precise Instrument Co.) were pulled with a Flaming/Brown micropipette puller (P-87) with a tip diameter of […]. Recombinant active caspase-6 or caspase-3 (R-Csp-6 and R-Csp-3 from Pharmingen) were prepared in caspase active buffer containing 20 mM piperazine-N,N′-βis-(2-ethanesulfonic acid) (PIPES), 100 mM NaCl, 10 mM dithiothreitol (DTT), 1 mM EDTA, 0.1% 3-[(3-cholamidopropyl)-dimethylammonio]-2-hydroxy-1-propanesulfonic acid (CHAPS), 10% sucrose, pH 7.2. R-Csp-6 was co-injected with Dextran Texas Red (DTR; at 100 μg/ml) (Cedarlane Laboratories Ltd.) as a fluorescent marker to recognize injected neurons. […] Microinjections were done with the Eppendorf Microinjector 5246 and MIS-5000 Burleigh micromanipulator; injection pressure of 100 hPa, compensation pressure of 50 hPa, and injection time of 0.1 s. The injected volume was 1 nl/shot.
Neurons were fixed in fresh 4% paraformaldehyde/4% sucrose in PBS and permeabilized with 0.1% Triton X-100 in 0.1% sodium citrate. Cell death was detected by TUNEL (TdT-mediated dUTP Nick End Labeling) using the Cell Death Kit I (Roche Molecular Biochemicals) as described by the manufacturer. The percentage of neuronal cell death was determined by the ratio of the number of DTR-TUNEL-double-positive neurons over the total number of DTR-positive neurons.
(§2) All were obtained from Sigma and dissolved as stock solutions in 100% ethanol. Dilutions of 1/1000 was made in culture media immediately before use. The media was changed with fresh solution every 48 hours. Controls received an equivalent amount of ethanol.
(§3) Cycloheximide (Sigma) was made at 1 mg/ml in distilled-water and diluted at 5 and 20 μg/ml in culture media before treatment. To assess the efficiency of cycloheximide as an inhibitor of translation at these concentrations, neurons were labeled with 100 μCi/ml of ^35S-methionine (Easy Tag NEN-DUPONT) for 6 hours in the absence or presence of cycloheximide. Proteins were extracted in NP-40 lysis buffer, immunoprecipitated and separated by 10% polyacrylamide gel electrophoresis. To test the effect of cycloheximide on the neuroprotective effect of 17-β-estradiol, neurons were microinjected with R-Csp-6 and incubated with 10 nM 17-β-estradiol in the absence or presence of cycloheximide for 48 hours.

[3] = system: recombinant active caspase-6 (R-Csp-6); assay: CIF activity: protein extracts of treated neurons added to recombinant active caspase-6 in vitro (Ac-VEID-AFC); format: cell-based, human
Method: as §1, §2
as §3, with “hours. To test the effect of cycloheximide on 17-β-estradiol induction of CIF, neurons were incubated with 10 nM 17-β-estradiol in the absence or presence of cycloheximide for 6 hours.” for “hours.”
After treatment, neuron proteins were extracted in caspase lysis buffer (50 mM Hepes pH 7.4, 0.1% CHAPS, 1 mM DTT, 0.1 mM EDTA) for 10 minutes on ice followed by microcentrifugation to remove insoluble material. Protein concentration was determined by bicinchoninic acid (BCA) assay (Pierce). Proteins (10 μg/100 μl assay) were added to 10 ng recombinant active caspase (Pharmingen or BioMol) in caspase assay buffer (20 mM Pipes, 30 mM NaCl, 10 mM DTT, 1 mM EDTA, 0.1% CHAPS, 10% sucrose pH 7.2) and 68.5 μM Ac-VEID-AFC for caspase-6, Ac-DEVD-AFC for caspase-3 and caspase-7, and Ac-IETD-AMC for caspase-8 (BioMol). The caspase-6 activity was measured at 37° C. every 2 minutes for 1 hour to determine the linear range of activity. Based on an AFC or AMC standard curve, the amount of released AFC or AMC was measured and the specific activity of the caspase determined as nmoles released AFC or AMC/pg protein/minute.

[4] = system: endogenous neuronal caspase-6; assay: Endogenous caspase-6 activity in treated neurons; format: cell-based, human; details: neurons treated for 48 hours
Method: as §1, with “(Hyclone). […] All were obtained from Sigma and dissolved as stock solutions in 100% ethanol. Dilutions of 1/1000 was made in culture media immediately before use. […] Protein concentration was determined by bicinchoninic acid (BCA) assay (Pierce). […] Based on an AFC or AMC standard curve, the amount of released AFC or AMC was measured and the specific activity of the caspase determined as nmoles released AFC or AMC/pg protein/minute.” for “(Hyclone).”

[5] = system: caspase-3-mediated astrocytic cell death; assay: TUNEL cell death of human astrocytes microinjected with caspase-3; format: cell-based; details: 10 nM
[6] = system: Human astrocytes extracts, CIF activity; assay: CIF activity in extracts of treated human astrocytes; format: cell-based; details: 10 nM, 6 hours
[7] = system: protein translation in neurons; assay: 35S-methionine labelling of neurons to assess inhibition of translation; format: cell-based, human; details: 5-20 μg/ml
Method: as §3, with “hours. To test the effect of cycloheximide on 17-β-estradiol induction of CIF, neurons were incubated with 10 nM 17-β-estradiol in the absence or presence of cycloheximide for 6 hours.” for “hours.”

[8] = 10 μM with 10 nM 17-β-estradiol

## C[C@]12CC[C@@H]3c4ccc(O)cc4CC[C@H]3[C@@H]1CC[C@H]2O [17-α-estradiol]
[1]; 10 nM
  Endogenous Csp-6 Specific Activity: 7.13 (0.06) pmoles/μg protein/min.
  Csp-6 activity remaining (% of control): 112%
R-Csp-6; 10 nM
  R-Csp-6 Specific Activity: 7.19 (0.01) nmoles/μg protein/min.
  R-Csp-6 activity remaining (% of control): 117%
[2]; 10 nM, 48 hours, 5 pg R-Csp-6/cell
  protection against R-Csp-6: do not protect significantly
[3]; 1, 10, or 100 nM, neurons treated 6 hours
  inhibition of active caspase-6 by extracts from treated neurons: neither 1, 10, or 100 nM 17-α-estradiol significantly inhibit active caspase-6

## C[C@]12CC[C@@H]3c4ccc(O)cc4CC[C@H]3[C@@H]1CC[C@@H]2O [17-β-estradiol]
[1]; 1 nM
  Endogenous Csp-6 Specific Activity: 4.02 (0.02) pmoles/μg protein/min.
  Csp-6 activity remaining (% of control): 63%
[1]; 10 nM
  Endogenous Csp-6 Specific Activity: 4.84 (0.03) pmoles/μg protein/min.
  Csp-6 activity remaining (% of control): 76%
[1]; 100 nM
  Endogenous Csp-6 Specific Activity: 5.06 (0.01) pmoles/μg protein/min.
  Csp-6 activity remaining (% of control): 80%
[4]
  endogenous caspase-6 activity in treated neurons: inhibits endogenous caspase-6 activity
[5]
  prevention of caspase-3 mediated astrocytic cell death: could not prevent
R-Csp-6; 1 nM
  R-Csp-6 Specific Activity: 3.82 (0.04) nmoles/μg protein/min.
  R-Csp-6 activity remaining (% of control): 62%
R-Csp-6; 10 nM
  R-Csp-6 Specific Activity: 3.25 (0.03) nmoles/μg protein/min.
  R-Csp-6 activity remaining (% of control): 53%
R-Csp-6; 100 nM
  R-Csp-6 Specific Activity: 4.30 (0.1) nmoles/μg protein/min.
  R-Csp-6 activity remaining (% of control): 70%
[6]
  CIF activation in astrocytes: CIF is not activated in astrocytes
[2]; 10 nM, 48 hours, 5 pg R-Csp-6/cell, R-Csp-6 alone 50%
  level of apoptosis of microinjected neurons (TUNEL): 20%
[2]; 10 nM, time study, until 8 days
  protection against caspase-6: 50%
[2]; 0.01 or 0.1 nM
  protection against caspase-6 mediated apoptosis: not 0.01 or 0.1 nM
[2]; 1 to 100 nM
  protection against caspase-6 mediated apoptosis: significant protection
[2]; hormone washed away, incubated until 48 hours
  exposure time at which neuronal apoptosis is decreased to maximal levels: 10 min
[3]
  inhibition of recombinant active caspase-6 in vitro by neuronal protein extracts from treated neurons: inhibit recombinant active caspase-6 in vitro
[3]; neurons treated 6 hours, 1-100 nM, 10 μg protein
  inhibition of the activity of R-Csp-6 by extracts from treated neurons: 40-60%
[3]; time response curve
  time of exposure at which CIF activity is maximal: 1 h
  time of exposure to neurons until CIF activity is induced: ≤ 10 min

## CC/C(=C(/CC)c1ccc(O)cc1)c1ccc(O)cc1 [DES, diethylstilbesterol]
[2]; 48 hours
  effect on 17-β-estradiol neuroprotective effect against caspase-6: inhibits
[2]; 10 nM, alone, 48 hours
  induction of neuroprotection in neurons: nor induce neuroprotection
[3]; 10 nM added to 17-β-estradiol
  effect on 17-β-estradiol induction of CIF: inhibits 17-β-estradiol induction of CIF
[3]; 10 nM, alone
  induction of CIF in neurons: Neither DES nor EE induce CIF

## C[C@@H]1C[C@@H]([C@H](O)CC2CC(=O)NC(=O)C2)C(=O)[C@@H](C)C1 [cycloheximide]
[7]
  protein translation in neurons: greatly inhibit protein translation
[2]; 5-20 μg/ml with 10 nM 17-β-estradiol, 48 hours
  effect on 17-β-estradiol-mediated neuroprotection: no effect
[3]; 5-20 μg/ml with 10 nM 17-β-estradiol, 6 hours
  effect on 17-β-estradiol induction of CIF: no effect

## CC/C(=C(\c1ccccc1)c1ccc(OCCN(C)C)cc1)c1ccccc1 [tamoxifen]
[2]; 48 hours
  effect on 17-β-estradiol neuroprotective effect against caspase-6: inhibits 17-β-estradiol effect
[2]; [8]
  block of neuroprotective function of 17-β-estradiol against caspase-6: efficiently blocked
[3]; 10 nM added to 17-β-estradiol
  effect on 17-β-estradiol induction of CIF: inhibits 17-β-estradiol effect
[3]; [8]
  block of 17-β-estradiol induced CIF activation: efficiently blocked
